Literature values in patent publication US20140208977A1, “POLYDISPERSE COMPOSITIONS AND METHODS FOR ELIMINATING VOLATILE ORGANIC COMPOUNDS” (priority 2013, published 2014).

Details: 77° F.

Row | Compound | Vapor Pressure [mmHg]
1 | C[Si]1(C)O[Si](C)(C)O[Si](C)(C)O[Si](C)(C)O[Si](C)(C)O1 [Decamethylcyclopentasiloxane] | 0.4
2 | C[Si](C)(C)O[Si](C)(C)O[Si](C)(C)O[Si](C)(C)C [Decamethyltetrasiloxane] | 0.55
3 | C[Si]1(C)O[Si](C)(C)O[Si](C)(C)O[Si](C)(C)O[Si](C)(C)O[Si](C)(C)O1 [Dodecamethylcyclohexasiloxane] | 0.02
4 | C[Si](C)(C)O[Si](C)(C)O[Si](C)(C)O[Si](C)(C)O[Si](C)(C)C [Dodecamethylpentasiloxane] | 0.7
5 | C[Si](C)(C)O[Si](C)(C)C [Hexamethyldisiloxane] | 31
6 | C[Si]1(C)O[Si](C)(C)O[Si](C)(C)O[Si](C)(C)O1 [Octamethylcyclotetrasiloxane] | 1.3
7 | C[Si](C)(C)O[Si](C)(C)O[Si](C)(C)C [Octamethyltrisiloxane] | 3.9

Details: 25° C.

Row | Compound | Water Solubility [µg/mL]
8 | C[Si]1(C)O[Si](C)(C)O[Si](C)(C)O1 [Hexamethylcyclotrisiloxane] | 1.56
9 | C[Si](C)(C)O[Si](C)(C)O[Si](C)(C)C [Octamethyltrisiloxane] | 0.035
